Species on record: Rattus norvegicus
Type: toxicity, organism-based, Sprague-Dawley
Conditions: in vivo, po, route oral GAVAGE, […]; for ABSOLUTE EOSINOPHIL / ABSOLUTE LYMPHOCYTE / ABSOLUTE MONOCYTE / ABSOLUTE SEGMENTED NEUTROPHIL / BASOPHIL / EOSINOPHIL / ERYTHROCYTE COUNT / HEMATOCRIT / HEMOGLOBIN / LEUKOCYTE COUNT / LYMPHOCYTE / MEAN CORPUSCULAR HEMOGLOBIN / MEAN CORPUSCULAR HEMOGLOBIN CONCENTRATION / MEAN CORPUSCULAR VOLUME / MONOCYTE / NEUTROPHIL / NUCLEATED RED BLOOD CELLS / PLATELET COUNT: tissue Blood; for ALANINE AMINOTRANSFERASE / ALKALINE PHOSPHATASE / ASPARTATE AMINOTRANSFERASE / BLOOD UREA NITROGEN / CARBON DIOXIDE / CHLORIDE / CHOLESTEROL / CREATINE PHOSPHOKINASE / CREATININE / GLUCOSE / LACTATE DEHYDROGENASE / LIPASE / PHOSPHORUS / POTASSIUM / SODIUM / TOTAL BILIRUBIN / TOTAL PROTEIN / URIC ACID: tissue Plasma
[1] = 0 mg/kg, 6 h, vehicle control, dose level Control, time 0.25 day
[2] = 0 mg/kg, 24 h, vehicle control, dose level Control, time 1 day
[3] = 100 mg/kg, 6 h, dose level Low, time 0.25 day

Description: DrugMatrix - Regimen: Single

In the case of `Cc1ccc(C)c(OCCCC(C)(C)C(=O)O)c1` [GEMFIBROZIL], the “ABSOLUTE EOSINOPHIL” value [1] is reported as 0 CELLS/uL, the “ABSOLUTE LYMPHOCYTE” value [1] is reported as 8631 CELLS/uL and the “ABSOLUTE MONOCYTE” value [1] is reported as 171.17 CELLS/uL. The “ABSOLUTE SEGMENTED NEUTROPHIL” value [1] was 1214.5 CELLS/uL, the BASOPHIL [1] was 0% and the EOSINOPHIL [1] was 0%. The “ERYTHROCYTE COUNT” value [1] was 5.42 x10E6/uL, the HEMATOCRIT [1] was 34.7% and the HEMOGLOBIN [1] was 13.67 G/DL. The “LEUKOCYTE COUNT” value [1] was 10.02 x10E3/uL, the LYMPHOCYTE [1] was 86.17% and the “MEAN CORPUSCULAR HEMOGLOBIN” value [1] was 25.27 pg. The “MEAN CORPUSCULAR HEMOGLOBIN CONCENTRATION” value [1] was 39.42 G/DL, the “MEAN CORPUSCULAR VOLUME” value [1] was 64.12 fL and the MONOCYTE [1] was 1.67%. For the same compound, the NEUTROPHIL [1] was 12.17%, the “NUCLEATED RED BLOOD CELLS” value [1] was 0 /100WBC and the “PLATELET COUNT” value [1] was 1050 x10E3/uL. The “ALANINE AMINOTRANSFERASE” value [1] was 61 u/L, the “ALKALINE PHOSPHATASE” value [1] was 312.5 u/L and the “ASPARTATE AMINOTRANSFERASE” value [1] was 117.5 u/L. For the same compound, the “BLOOD UREA NITROGEN” value [1] was 8.67 mg/dL, the “CARBON DIOXIDE” value [1] was 26.33 mmol/L and the CHLORIDE [1] was 100.5 MEQ/L. For the same compound, the CHOLESTEROL [1] was 72 mg/dL, the “CREATINE PHOSPHOKINASE” value [1] was 283.33 u/L and the CREATININE [1] was 0.28 mg/dL. For the same compound, the GLUCOSE [1] was 172 mg/dL, the “LACTATE DEHYDROGENASE” value [1] was 95.33 u/L and the LIPASE [1] was 10.17 u/L. For the same compound, the PHOSPHORUS [1] was 9.9 mg/dL, the POTASSIUM [1] was 5.75 MEQ/L and the SODIUM [1] was 142.4 MEQ/L. The “TOTAL BILIRUBIN” value [1] was 0.3 mg/dL, the “TOTAL PROTEIN” value [1] was 5.43 G/DL and the “URIC ACID” value [1] was 0.73 mg/dL. For the same compound, the “ABSOLUTE EOSINOPHIL” value [2] was 90.83 CELLS/uL, the “ABSOLUTE LYMPHOCYTE” value [2] was 14725.17 CELLS/uL and the “ABSOLUTE MONOCYTE” value [2] was 220 CELLS/uL. For the same compound, the “ABSOLUTE SEGMENTED NEUTROPHIL” value [2] was 1080.67 CELLS/uL, the BASOPHIL [2] was 0% and the EOSINOPHIL [2] was 0.67%. For the same compound, the “ERYTHROCYTE COUNT” value [2] was 5.3 x10E6/uL, the HEMATOCRIT [2] was 33.4% and the HEMOGLOBIN [2] was 13.4 G/DL. For the same compound, the “LEUKOCYTE COUNT” value [2] was 16.12 x10E3/uL, the LYMPHOCYTE [2] was 91.17% and the “MEAN CORPUSCULAR HEMOGLOBIN” value [2] was 25.3 pg. The “MEAN CORPUSCULAR HEMOGLOBIN CONCENTRATION” value [2] was 40.12 G/DL, the “MEAN CORPUSCULAR VOLUME” value [2] was 63.05 fL and the MONOCYTE [2] was 1.5%. The NEUTROPHIL [2] was 6.67%, the “NUCLEATED RED BLOOD CELLS” value [2] was 0 /100WBC and the “PLATELET COUNT” value [2] was 1062 x10E3/uL. The “ALANINE AMINOTRANSFERASE” value [2] was 69 u/L, the “ALKALINE PHOSPHATASE” value [2] was 269 u/L and the “ASPARTATE AMINOTRANSFERASE” value [2] was 83.67 u/L. The “BLOOD UREA NITROGEN” value [2] was 14 mg/dL, the “CARBON DIOXIDE” value [2] was 29 mmol/L and the CHLORIDE [2] was 100.83 MEQ/L. For the same compound, the CHOLESTEROL [2] was 66.67 mg/dL, the “CREATINE PHOSPHOKINASE” value [2] was 355 u/L and the CREATININE [2] was 0.18 mg/dL. For the same compound, the GLUCOSE [2] was 161.33 mg/dL, the “LACTATE DEHYDROGENASE” value [2] was 123.33 u/L and the LIPASE [2] was 10.67 u/L. For the same compound, the PHOSPHORUS [2] was 8.83 mg/dL, the POTASSIUM [2] was 6.06 MEQ/L and the SODIUM [2] was 142.45 MEQ/L. The “TOTAL BILIRUBIN” value [2] was 0.2 mg/dL, the “TOTAL PROTEIN” value [2] was 5.72 G/DL and the “URIC ACID” value [2] was 1.27 mg/dL. For the same compound, the “ABSOLUTE EOSINOPHIL” value [3] was 97 CELLS/uL, the “ABSOLUTE LYMPHOCYTE” value [3] was 13743.17 CELLS/uL and the “ABSOLUTE MONOCYTE” value [3] was 354.83 CELLS/uL. For the same compound, the “ABSOLUTE SEGMENTED NEUTROPHIL” value [3] was 1355 CELLS/uL, the BASOPHIL [3] was 0% and the EOSINOPHIL [3] was 0.67%. For the same compound, the “ERYTHROCYTE COUNT” value [3] was 5.46 x10E6/uL, the HEMATOCRIT [3] was 35.92% and the HEMOGLOBIN [3] was 13.93 G/DL. The “LEUKOCYTE COUNT” value [3] was 15.55 x10E3/uL, the LYMPHOCYTE [3] was 88.33% and the “MEAN CORPUSCULAR HEMOGLOBIN” value [3] was 25.62 pg. The “MEAN CORPUSCULAR HEMOGLOBIN CONCENTRATION” value [3] was 38.85 G/DL, the “MEAN CORPUSCULAR VOLUME” value [3] was 65.98 fL and the MONOCYTE [3] was 2.17%. The NEUTROPHIL [3] was 8.83%, the “NUCLEATED RED BLOOD CELLS” value [3] was 0 /100WBC and the “PLATELET COUNT” value [3] was 1082.83 x10E3/uL. For the same compound, the “ALANINE AMINOTRANSFERASE” value [3] was 47.5 u/L, the “ALKALINE PHOSPHATASE” value [3] was 284.67 u/L and the “ASPARTATE AMINOTRANSFERASE” value [3] was 80.83 u/L. For the same compound, the “BLOOD UREA NITROGEN” value [3] was 8 mg/dL, the “CARBON DIOXIDE” value [3] was 26.67 mmol/L and the CHLORIDE [3] was 100.17 MEQ/L. The CHOLESTEROL [3] was 76 mg/dL, the “CREATINE PHOSPHOKINASE” value [3] was 275.33 u/L and the CREATININE [3] was 0.13 mg/dL. For the same compound, the GLUCOSE [3] was 141.33 mg/dL, the “LACTATE DEHYDROGENASE” value [3] was 112.33 u/L and the LIPASE [3] was 11 u/L. It also gave a PHOSPHORUS [3] of 11.7 mg/dL, a POTASSIUM [3] of 6.32 MEQ/L and an SODIUM [3] of 141.92 MEQ/L. For the same compound, the “TOTAL BILIRUBIN” value [3] was 0.37 mg/dL, the “TOTAL PROTEIN” value [3] was 5.85 G/DL and the “URIC ACID” value [3] was 1.2 mg/dL.
